# Test results reported in patent US20260007758A1, “SO[…]-2 RECEPTOR (SST2R) NON-PEPTIDE DRUG CONJUGATES AND USES THEREOF” (Crinetics Pharmaceuticals, Inc., priority 2024, published 2026).
# How the values were obtained:
# Format in all cases: cell-based
# [1] = target: T1, human somatostatin receptor subtype 2 (Homo sapiens, UniProt P30874); assay: Functional assay for SSTR2 agonists (HTRF cAMP); conditions: CHO-K1 cells stably expressing human SST2; NKH477-stimulated cAMP; 20 min at 37 C; read-out: hSST2 cAMP Avg EC50
# T1 construct: expressed in transfected cells
# T1 sequence (P30874 whole entry): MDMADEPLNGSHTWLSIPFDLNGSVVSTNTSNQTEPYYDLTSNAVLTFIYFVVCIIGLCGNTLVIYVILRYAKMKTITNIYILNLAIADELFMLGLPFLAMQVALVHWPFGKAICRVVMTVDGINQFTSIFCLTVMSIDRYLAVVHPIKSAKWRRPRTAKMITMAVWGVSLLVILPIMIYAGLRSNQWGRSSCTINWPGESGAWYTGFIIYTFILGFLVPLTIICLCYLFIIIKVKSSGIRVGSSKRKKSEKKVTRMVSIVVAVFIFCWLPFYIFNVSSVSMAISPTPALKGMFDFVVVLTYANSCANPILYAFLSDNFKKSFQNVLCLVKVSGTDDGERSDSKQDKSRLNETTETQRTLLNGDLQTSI
# Outline: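 Agonist activity read as fall in intracellular cAMP: HTRF 665/620 nm ratio regressed to a cAMP standard curve, EC50 fitted. Stable human SSTR2 CHO-K1 cells exposed 20 min at 37 °C to compound, final concentrations typically 0-10,000 nM.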
# SST2 = target: T2, SST2 (Homo sapiens, UniProt P30874); assay: PathHunter CHO-K1 SST2 Internalization Assay; conditions: PathHunter CHO-K1 SST2 cells; 90 min at 37 C; luminescence; read-out: Internalization EC50
# T2 construct: host or cells: PathHunter CHO-K1 SST2 cells
# T2 sequence (P30874 whole entry): as above
# Outline: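 Four-parameter nonlinear fits of background-corrected luminescence (duplicate means) gave IC50s. NDCs were serially diluted 1:3 over 11 points from a 10 uM final top concentration and incubated 90 min at 37 C with human SST2 CHO-K1 cells plated 48 h earlier at 2500/well. Beta-Glo read-out developed 60 min at RT.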
# [2] = tested on: NCI-H524 human small cell lung cancer cells; assay: H524 assay: inhibition of cell proliferation (CellTiter Glo); conditions: 2 h treatment, washout, additional 70 h incubation
# Outline: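 Proliferation was measured by CellTiter Glo 70 h after a washout that followed a 2 h pulse of NDC. Doses were an 11-point, two-fold dilution series from 1 uM. IC50 was fitted with a four-parameter model to luminescence-based % inhibition relative to control cells.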
Structure (SMILES),EC50 [1],EC50 (SST2),EC50 [2]
CC[C@H](C)[C@@H]([C@@H](CC(=O)N1CCC[C@H]1[C@H](OC)[C@@H](C)C(=O)N[C@H](C)[C@@H](O)c1ccccc1)OC)N(C)C(=O)[C@@H](NC(=O)[C@H](C(C)C)N(C)C(=O)OCc1ccc(NC(=O)[C@H](CCCNC(N)=O)NC(=O)[C@@H](NC(=O)[C@H](CCC(=O)O)NC(=O)CCOCCC(=O)NCCNc2ncc(-c3cc(C)cc(F)c3)c(N3CCC(N)CC3)c2-c2nc3ccc(Cl)cc3[nH]2)C(C)C)c(C)c1)C(C)C [Compound 15],0.27 nM,17 nM,91 nM
CC[C@H](C)[C@@H]([C@@H](CC(=O)N1CCC[C@H]1[C@H](OC)[C@@H](C)C(=O)N[C@H](C)[C@@H](O)c1ccccc1)OC)N(C)C(=O)[C@@H](NC(=O)[C@H](C(C)C)N(C)C(=O)OCc1ccc(NC(=O)[C@H](CCCNC(N)=O)NC(=O)[C@@H](NC(=O)CCOCCC(=O)NCCNc2ncc(-c3cc(C)cc(F)c3)c(N3CCC(N)CC3)c2-c2nc3cc(Cl)ccc3[nH]2)C(C)C)c(O[C@@H]2O[C@H](C(=O)NCC(=O)O)[C@@H](O)[C@H](O)[C@H]2O)c1)C(C)C [Compound 44],0.085 nM,4.5 nM,4.8 nM
CC[C@H](C)[C@@H]([C@@H](CC(=O)N1CCC[C@H]1[C@H](OC)[C@@H](C)C(=O)N[C@H](C)[C@@H](O)c1ccccc1)OC)N(C)C(=O)[C@@H](NC(=O)[C@H](C(C)C)N(C)C(=O)OCc1ccc(NC(=O)[C@H](CCCNC(N)=O)NC(=O)[C@@H](NC(=O)[C@H](CCC(=O)O)NC(=O)CCOCCC(=O)NCCNc2ncc(-c3cc(C)cc(F)c3)c(N3CCC(N)CC3)c2-c2nc3ccc(Cl)cc3[nH]2)C(C)C)cc1C(=O)NCCN(C)C)C(C)C [Compound 64],0.12 nM,2.9 nM,11 nM
CC[C@H](C)[C@@H]([C@@H](CC(=O)N1CCC[C@H]1[C@H](OC)[C@@H](C)C(=O)N[C@H](C)[C@@H](O)c1ccccc1)OC)N(C)C(=O)[C@@H](NC(=O)[C@H](C(C)C)N(C)C(=O)OCc1ccc(NC(=O)[C@H](C)NC(=O)[C@@H](NC(=O)CCOCCC(=O)NCCNc2ncc(-c3cc(C)cc(F)c3)c(N3CC[C@H]4NCCO[C@@H]4C3)c2-c2nc3ccc(Cl)cc3[nH]2)C(C)C)c(O[C@@H]2O[C@H](C(=O)O)[C@@H](O)[C@H](O)[C@H]2O)c1)C(C)C [Compound 113],110 nM,1300 nM,2000 nM
CC[C@H](C)[C@@H]([C@@H](CC(=O)N1CCC[C@H]1[C@H](OC)[C@@H](C)C(=O)N[C@H](C)[C@@H](O)c1ccccc1)OC)N(C)C(=O)[C@@H](NC(=O)[C@H](C(C)C)N(C)C(=O)OCc1ccc(NC(=O)[C@H](CCCNC(N)=O)NC(=O)[C@@H](NC(=O)c2cc(NCCOCCC(=O)NCCNc3ncc(-c4cc(C)cc(F)c4)c(N4CCC(N)CC4)c3-c3nc4ccc(Cl)cc4[nH]3)cc(C(=O)NCCC(=O)O)c2)C(C)C)cc1)C(C)C [Compound 145],0.38 nM,17 nM,78 nM
CC[C@H](C)[C@@H]([C@@H](CC(=O)N1CCC[C@H]1[C@H](OC)[C@@H](C)C(=O)N[C@H](C)[C@@H](O)c1ccccc1)OC)N(C)C(=O)[C@@H](NC(=O)[C@H](C(C)C)N(C)C(=O)OCc1ccc(NC(=O)[C@H](CCCNC(N)=O)NC(=O)[C@@H](NS(=O)(=O)C[C@H](C)NC(=O)CCOCCC(=O)NCCNc2ncc(-c3cc(C)cc(F)c3)c(N3CCC(N)CC3)c2-c2nc3ccc(Cl)cc3[nH]2)C(C)C)c(O[C@@H]2O[C@H](C(=O)N(C)CC(=O)O)[C@@H](O)[C@H](O)[C@H]2O)c1)C(C)C [Compound 220],0.077 nM,3.1 nM,7.6 nM
CC[C@H](C)[C@@H]([C@@H](CC(=O)N1CCC[C@H]1[C@H](OC)[C@@H](C)C(=O)N[C@H](C)[C@@H](O)c1ccccc1)OC)N(C)C(=O)[C@@H](NC(=O)[C@H](C(C)C)N(C)C(=O)OCc1ccc(NC(=O)[C@H](CCCNC(N)=O)NC(=O)[C@@H](NC(=O)CN(C)C(=O)CCOCCC(=O)NCCNc2ncc(-c3cc(C)cc(F)c3)c(N3CCC(N)CC3)c2-c2nc3ccc(Cl)cc3[nH]2)C(C)C)c(OCC(N)=O)c1)C(C)C [Compound 20],0.093 nM,7 nM,29 nM
CC[C@H](C)[C@@H]([C@@H](CC(=O)N1CCC[C@H]1[C@H](OC)[C@@H](C)C(=O)N[C@H](C)[C@@H](O)c1ccccc1)OC)N(C)C(=O)[C@@H](NC(=O)[C@H](C(C)C)N(C)C(=O)OCc1ccc(NC(=O)C(CCCNC(N)=O)NC(=O)[C@@H](NC(=O)c2cc(NC(=O)CCOCCC(=O)N(C)CC(=O)NCCNc3ncc(-c4cc(C)cc(F)c4)c(N4CCC(N)CC4)c3-c3nc4ccc(Cl)cc4[nH]3)cc(C(=O)NCC(=O)NCCN)c2)C(C)C)cc1)C(C)C (stereo partly drawn) [Compound 175],0.41 nM,18 nM,56 nM
CC[C@H](C)[C@@H]([C@@H](CC(=O)N1CCC[C@H]1[C@H](OC)[C@@H](C)C(=O)N[C@H](C)[C@@H](O)c1ccccc1)OC)N(C)C(=O)[C@@H](NC(=O)[C@H](C(C)C)N(C)C(=O)OCc1ccc(NC(=O)[C@H](C)NC(=O)[C@@H](NC(=O)CN(C)C(=O)CCOCCC(=O)NCCNc2ncc(-c3cc(C)cc(F)c3)c(N3CCC(N)CC3)c2-c2nc3ccc(Cl)cc3[nH]2)C(C)C)c(O[C@@H]2O[C@H](C(=O)O)[C@@H](O)[C@H](O)[C@H]2O)c1)C(C)C [Compound 111],0.046 nM,8.7 nM,19 nM
CC[C@H](C)[C@@H]([C@@H](CC(=O)N1CCC[C@H]1[C@H](OC)[C@@H](C)C(=O)N[C@H](C)[C@@H](O)c1ccccc1)OC)N(C)C(=O)[C@@H](NC(=O)[C@H](C(C)C)N(C)C(=O)OCc1ccc(NC(=O)[C@@H](CCCNC(N)=O)NC(=O)[C@@H](NC(=O)CCOCCC(=O)NCCNc2ncc(-c3cc(C)cc(F)c3)c(N3CCC(N)CC3)c2-c2nc3ccc(Cl)cc3[nH]2)C(C)C)c(O[C@H]2[C@H](O)[C@@H](O)[C@H](O)[C@@H](C(=O)O)[C@H]2O)c1)C(C)C [Compound 241],0.19 nM,4.6 nM,2900 nM
CC[C@H](C)[C@@H]([C@@H](CC(=O)N1CCC[C@H]1[C@H](OC)[C@@H](C)C(=O)N[C@H](C)[C@@H](O)c1ccccc1)OC)N(C)C(=O)[C@@H](NC(=O)[C@H](C(C)C)N(C)C(=O)OCc1ccc(NC(=O)[C@H](CCCNC(N)=O)NC(=O)[C@@H](NC(=O)C[C@@H](N)C(=O)NCCOCCNC(=O)c2cc(NCCOCCC(=O)NCCNc3ncc(-c4cc(C)cc(F)c4)c(N4CCC(N)CC4)c3-c3nc4cc(F)cc(OC)c4[nH]3)cc(C(=O)NCC(=O)O)c2)C(C)C)cc1)C(C)C [Compound 164],0.35 nM,4.1 nM,27 nM
CC[C@H](C)[C@@H]([C@@H](CC(=O)N1CCC[C@H]1[C@H](OC)[C@@H](C)C(=O)N[C@H](C)[C@@H](O)c1ccccc1)OC)N(C)C(=O)[C@@H](NC(=O)C(C(C)C)N(C)C(=O)OCc1ccc(NC(=O)[C@H](CCCNC(N)=O)NC(=O)[C@@H](NC(=O)CCOCCC(=O)NCCNc2ncc(-c3cc(C)cc(F)c3)c(N3CCC(N)CC3)c2-c2nc3ccc(Cl)cc3[nH]2)C(C)C)c(O[C@@H]2O[C@H](C(=O)N3CCC(C(=O)O)CC3)[C@@H](O)[C@H](O)[C@H]2O)c1)C(C)C (stereo partly drawn) [Compound 235],0.11 nM,4.4 nM,14 nM
CC[C@H](C)[C@@H]([C@@H](CC(=O)N1CCC[C@H]1[C@H](OC)[C@@H](C)C(=O)N[C@H](C)[C@@H](O)c1ccccc1)OC)N(C)C(=O)[C@@H](NC(=O)[C@H](C(C)C)N(C)C(=O)OCc1ccc(NC(=O)[C@H](CCCNC(N)=O)NC(=O)[C@@H](NC(=O)[C@@H](CS(=O)(=O)O)NC(=O)CCOCCC(=O)NCCNc2ncc(-c3cc(C)cc(F)c3)c(N3CCC(N)CC3)c2-c2nc3ccc(Cl)cc3[nH]2)C(C)C)cc1C(=O)N1CC(C(=O)O)C1)C(C)C [Compound 77],0.092 nM,4.2 nM,130 nM
CC[C@H](C)[C@@H]([C@@H](CC(=O)N1CCC[C@H]1[C@H](OC)[C@@H](C)C(=O)N[C@H](C)[C@@H](O)c1ccccc1)OC)N(C)C(=O)[C@@H](NC(=O)[C@H](C(C)C)N(C)C(=O)OCc1ccc(NC(=O)[C@H](CCCNC(N)=O)NC(=O)[C@@H](NC(=O)c2cc(NCCOCCOCCOCCC(=O)NCCNc3ncc(-c4cc(C)cc(F)c4)c(N4CCC(N)CC4)c3-c3nc4ccc(Cl)cc4[nH]3)cc(C(=O)O)c2)C(C)C)cc1)C(C)C [Compound 177],0.23 nM,11 nM,2300 nM
CC[C@H](C)[C@@H]([C@@H](CC(=O)N1CCC[C@H]1[C@H](OC)[C@@H](C)C(=O)N[C@H](C)[C@@H](O)c1ccccc1)OC)N(C)C(=O)[C@@H](NC(=O)[C@H](C(C)C)N(C)C(=O)OCc1ccc(NC(=O)[C@H](CCCNC(N)=O)NC(=O)[C@@H](NC(=O)CCOCCC(=O)NCCNc2ncc(-c3cc(C)cc(F)c3)c(N3CCC(N)CC3)c2-c2nc3ccc(Cl)cc3[nH]2)C(C)C)c(O[C@@H]2O[C@H](C(=O)NCCNC(=O)CCC(=O)NS(=O)(=O)c3ccc4ccccc4c3)[C@@H](O)[C@H](O)[C@H]2O)c1)C(C)C [Compound 224],0.068 nM,3.2 nM,27 nM
CC[C@H](C)[C@@H]([C@@H](CC(=O)N1CCC[C@H]1[C@H](OC)[C@@H](C)C(=O)N[C@H](C)[C@@H](O)c1ccccc1)OC)N(C)C(=O)[C@@H](NC(=O)[C@H](C(C)C)N(C)C(=O)OCc1ccc(NC(=O)[C@H](CCCNC(N)=O)NC(=O)[C@@H](NC(=O)CCOCCOCCOCCOCCC(=O)N(C)CC(=O)NCCNc2ncc(-c3cc(C)cc(F)c3)c(N3CCC(N)CC3)c2-c2nc3ccc(Cl)cc3[nH]2)C(C)C)c(OCC(=O)O)c1)C(C)C [Compound 24],0.2 nM,20 nM,100 nM
